Values quoted from earlier work in US12527803B2, “Testosterone dodecanoate compositions and methods” (priority 2023, dated 2026).

Assays:
[1] = tested on: Candida albicans, Aspergillus niger, and Fusarium spp
[2] = tested on: normotensive and hypertensive rats
[3] = tested on: Vesicular stomatitis virus, Herpes simplex virus, Visna virus, Respiratory syncytial virus, and Junin virus
[4] = tested on: Enterhemorrhagic E. Coli (EHEC) biofilms; conditions: p<0.001 for lauric acid
[5] = tested on: prostatic hyperplasia induced by testosterone; conditions: rats
[6] = tested on: Propionibacterium acnes, Staphylococcus aureus, Eschericia coli, Streptococci, Mycobacterium tuberculosis, Clostridium difficile and other bacteria

Row | SMILES | Antifungal benefit [1] | Effect on BP and heart rate ([2]; normotensive and hypertensive rats) | Effect on HDL levels ([2]; rat, in vivo) | Antiviral benefit [3] | Repression of EHEC biofilms versus control [4] | Effect on prostatic hyperplasia induced by testosterone [5] | Antibacterial benefit [6]
1 | CCCCCCCCCCCC(=O)O [lauric acid] | antifungal benefit | reduce the BP and heart rate | increase HDL levels | antiviral benefit | repressed EHEC biofilms significantly differently than the control | prevent the prostatic hyperplasia induced by testosterone | antibacterial benefit
2 | CCCCCCCCCCC(=O)O [undecanoic acid] |  |  |  |  | did not |  | 
